Data published in patent US9434725B2, “5-azaindazole compounds and methods of use” (priority 2012, dated 2016).
Where two headings read alike, the source gives them in different places.

Legend:
[1] = tested on: MM1.S (multiple myeloma) cells; assay: In vitro cell proliferation potency assay (Cell Titer Glo), MM1.S cells; format: cell-based; details: Homo sapiens, MM1.S cells, 72 hours, read-out: Prolif MM1S ATP (EC50)
Protocol: (§1) BaF3 parental line was obtained from the DSMZ repository. BaF3 lines transfected with PIM1 or PIM2 were generated. Mouse IL-3 was purchased from R&D Systems. G418 was purchased from Clontech. Media for BaF3 parental line contained RPMI, 10% FBS, 2 mM L-Glutamine, 2 ng/mL mIL-3. Media for BaF3 PIM1 & 2 lines contained RPMI, 10% FBS, 2 mM L-Glutamine, […]. Media for MM1.S (multiple myeloma cells) line contained RPMI, 10% FBS, 2 mM L-Glutamine.
(§2) BaF3, a murine interleukin-3 dependent pro-B cell line, parental cells, BaF3 PIM1 cells, BaF3 PIM2 cells, and MM1.S (multiple myeloma) cells were seeded at 2 k/well, 5 k/well, 5 k/well, and 10 k/well respectively, in a 384-well plate, at 45 μL/well. Test compound was added at 5 μL/well. BaF3 cells (parental and transfected) were incubated overnight, while MM1.S cells were incubated for 72 hours at 37° C., 5% CO2. CELL TITER GLO® Reagent (Promega) was added at 50 μL/well, the plates were incubated for 30 minutes, and their luminescence read on an HT Analyst. IC50/EC50 values for the test compound were calculated.

PIM2 = PIM2 (Homo sapiens (Human), UniProt Q9P1W9); assay: Pim kinase binding activity, Caliper LC3000 microfluidic peptide phosphorylation assay, PIM2; format: biochemical; details: 10 μM ATP, 90 min, room temperature; read-out: PIM2 LC3K (KI)
Procedure, shortened: (§3)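 Read-out is microfluidic electrophoretic separation of phosphorylated from unphosphorylated fluorescent Pim peptide, with Ki calculated from conversion. Reactions ran 90 min at room temperature in HEPES pH 7.2 containing MgCl2, Tween 20 and DTT, ended by EDTA-containing buffer.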

PIM3 = PIM3 (Homo sapiens (Human), UniProt Q86V86); assay: Pim kinase binding activity, Caliper LC3000 microfluidic peptide phosphorylation assay, PIM3; format: biochemical; details: 10 μM ATP, 90 min, room temperature; read-out: PIM3 LC3K (KI)
Procedure, shortened: as §3

PIM1 = PIM1 (Homo sapiens (Human), UniProt P11309); assay: biochemical; format: biochemical; details: 10 μM ATP, 90 min, room temperature; read-out: PIM1 LC3K (KI)
Procedure, shortened: as §3

BaF3 PIM1 cells = assay: In vitro cell proliferation potency assay (Cell Titer Glo), BaF3 PIM1 cells; format: cell-based, murine; details: Mus musculus, BaF3, BaF3 cells transfected with PIM1, incubated overnight; read-out: Prolif BaF3_PIM 1 (IC50)
Protocol: as §1, §2

PIM1, sequence (P11309 whole entry): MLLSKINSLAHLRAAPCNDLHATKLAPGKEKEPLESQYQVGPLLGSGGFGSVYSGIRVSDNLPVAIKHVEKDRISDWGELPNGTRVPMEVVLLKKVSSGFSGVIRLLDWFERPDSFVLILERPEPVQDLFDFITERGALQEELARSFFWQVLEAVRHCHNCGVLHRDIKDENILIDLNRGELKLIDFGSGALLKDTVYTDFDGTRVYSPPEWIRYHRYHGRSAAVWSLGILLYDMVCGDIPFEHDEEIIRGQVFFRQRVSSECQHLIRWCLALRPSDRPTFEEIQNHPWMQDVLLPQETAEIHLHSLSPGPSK
PIM2, sequence (Q9P1W9 whole entry): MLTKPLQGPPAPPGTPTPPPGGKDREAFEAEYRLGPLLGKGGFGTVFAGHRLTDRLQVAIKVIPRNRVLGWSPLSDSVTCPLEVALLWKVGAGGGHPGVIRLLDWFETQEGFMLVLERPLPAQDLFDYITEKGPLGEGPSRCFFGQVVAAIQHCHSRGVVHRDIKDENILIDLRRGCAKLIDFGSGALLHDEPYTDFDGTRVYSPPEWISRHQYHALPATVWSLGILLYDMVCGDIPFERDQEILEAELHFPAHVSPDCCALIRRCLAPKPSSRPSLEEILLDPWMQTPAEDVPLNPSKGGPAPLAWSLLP

| Compound | EC50 ([1]; MM1.S, 72 h) [nM] | Ki (PIM2) [nM] | Ki (PIM3) [nM] | EC50 [1] [nM] | Ki (PIM1) [nM] | IC50 (BaF3 PIM1 cells) [nM] |
| --- | --- | --- | --- | --- | --- | --- |
| Cc1cncc(-c2cc3c(cn2)cnn3-c2cccc(N3CCCNCC3)n2)c1 [Compound 141, 1-(6-(1,4-diazepan-1-yl)pyridin-2-yl)-6-(5-methylpyridin-3-yl)-1H-pyrazolo[4,3-c]pyridine] | 5000 | 3.37 | 0.078 | – | – | – |
| Cc1cncc(-c2cc3c(cnn3-c3cccc(N4CCNCC4)n3)nn2)n1 [Compound 313, 6-(6-methylpyrazin-2-yl)-1-(6-(piperazin-1-yl)pyridin-2-yl)-1H-pyrazolo[4,3-c]pyridazine] | 7100 | 0.71 | 0.05 | – | – | – |
| OCCNc1cncc(-c2cc3c(cn2)cnn3-c2cccc(N3CCNCC3)n2)n1 [Compound 282, 2-[[6-[1-(6-piperazin-1-yl-2-pyridyl)pyrazolo[4,3-c]pyridin-6-yl]pyrazin-2-yl]amino]ethanol] | 9700 | 0.357 | 0.021 | – | – | – |
| Cc1cncc(-c2cc3c(cn2)cnn3-c2cccc(N3CCCNCC3)n2)n1 [Compound 138, 1-[6-(1 4-diazepan-1-yl)-2-pyridyl]-6-(6-methylpyrazin-2-yl)pyrazolo[4,3-c]pyridine] | 4600 | 0.44 | – | – | – | – |
| Cc1cncc(-c2cc3c(cn2)cnn3-c2cccc(N3CC(N)CCC3C)n2)n1 (single isomer, unassigned) [Compound 182, 6-methyl-1-[6-[6-(6-methylpyrazin-2-yl)pyrazolo[4,3-c]pyridin-1-yl]-2-pyridyl]piperidin-3-amine] | 1900 | – | – | – | – | – |
| NCCOc1cncc(-c2cc3c(cn2)cnn3-c2cccc(N3CCNCC3)n2)n1 [Compound 286, 2-((6-(1-(6-(piperazin-1-yl)pyridin-2-yl)-1H-pyrazolo[4,3-c]pyridin-6-yl)pyrazin-2-yl)oxy)ethanamine] | 8200 | – | 0.092 | – | – | – |
| OCC#Cc1cncc(-c2cc3c(cn2)cnn3-c2cccc(N3CCNCC3)n2)n1 [Compound 300, 3-(6-(1-(6-(piperazin-1-yl)pyridin-2-yl)-1H-pyrazolo[4,3-c]pyridin-6-yl)pyrazin-2-yl)prop-2-yn-1-ol] | 2400 | 0.228 | 0.032 | – | – | – |
| OCC(O)c1cncc(-c2cc3c(cn2)cnn3-c2cccc(N3CCNCC3)n2)n1 (stereo not shown) [Compound 277, 1-(6-(1-(6-(piperazin-1-yl)pyridin-2-yl)-1H-pyrazolo[4,3-c]pyridin-6-yl)pyrazin-2-yl)ethane-1,2-diol] | 4200 | 4.67 | – | – | – | – |
| CCc1cncc(-c2cc3c(cn2)cnn3-c2cccc(N3CCCNCC3)n2)n1 [Compound 150, 1-[6-(1 4-diazepan-1-yl)-2-pyridyl]-6-(6-ethylpyrazin-2-yl)pyrazolo[4 3-c]pyridine] | – | 0.333 | 0.019 | 1900 | – | – |
| Cc1cc(-c2cc3c(cn2)cnn3-c2cccc(N3CCC[C@H](N)C3)n2)sn1 [Compound 124, (3S)-1-[6-[6-(3-methylisothiazol-5-yl)pyrazolo[4,3-c]pyridin-1-yl]-2-pyridyl]piperidin-3-amine] | – | 3.48 | 0.14 | – | 0.71 | 804 |
| Cc1cncc(-c2cc3c(cn2)cnn3-c2cccc(N3CCC[C@H](N)C3)n2)n1 [Compound 137, (3S)-1-[6-[6-(6-methylpyrazin-2-yl)pyrazolo[4,3-c]pyridin-1-yl]-2-pyridyl]piperidin-3-amine] | – | 0.499 | 0.038 | – | 0.159 | 2100 |
| Cc1cncc(-c2cc3c(cn2)cnn3-c2cccc(N3CCC4(CCCN4)CC3)n2)n1 [Compound 216, 8-[6-[6-(6-methylpyrazin-2-yl)pyrazolo[4,3-c]pyridin-1-yl]-2-pyridyl]-1 8-diazaspiro[4.5]decane] | – | 2.95 | 0.094 | – | 0.223 | 715 |
| O[C@H]1CNCCN(c2cccc(-n3ncc4cnc(-c5cnn(CC(F)(F)F)c5)cc43)n2)C1 [Compound 189, (S)-1-(6-(6-(1-(2,2,2-Trifluoroethyl)-1H-pyrazol-4-yl)-1H-pyrazolo[4,3-c]pyridin-1-yl)-pyridin-2-yl)-1,4-diazepan-6-ol] | – | 0.373 | 0.089 | – | 0.038 | 181 |
| Cc1cncc(-c2cc3c(cn2)cnn3-c2cccc(N3CCNC(C)C3)n2)n1 (stereo not shown) [Compound 169, 1-[6-(3-methylpiperazin-1-yl)-2-pyridyl]-6-(6-methylpyrazin-2-yl)pyrazolo[4,3-c]pyridine] | – | 1.79 | 0.164 | – | 0.228 | 457 |
| Cc1nc(-c2cc3c(cn2)cnn3-c2cccc(N3CCC[C@H](N)C3)n2)cnc1N [Compound 209, (S)-5-(1-(6-(3-aminopiperidin-1-yl)pyridin-2-yl)-1H-pyrazolo[4,3-c]pyridin-6-yl)-3-methylpyrazin-2-amine] | – | 0.575 | 0.011 | – | 0.045 | 682 |
| c1cc(N2CCCNCC2)nc(-n2ncc3cnc(-c4cncc(C5CC5)c4)cc32)c1 [Compound 112] | – | 3.87 | 0.093 | – | 0.038 | 490 |
| CCc1cncc(-c2cc3c(cn2)cnn3-c2ccc(Cl)c(N3CCC[C@H](N)C3)n2)c1 [Compound 117, (S)-1-(3-chloro-6-(6-(5-ethylpyridin-3-yl)-1H-pyrazolo[4,3-c]pyridin-1-yl)pyridin-2-yl)piperidin-3-amine] | – | 1.03 | 0.098 | – | 0.141 | 2900 |
| Cc1cncc(-c2cc3c(cn2)cnn3-c2cccc(N3CCC4(CNC4)C3)n2)n1 [Compound 214, 1-[6-(2 6-diazaspiro[3.4]octan-6-yl)-2-pyridyl]-6-(6-methylpyrazin-2-yl)pyrazolo[4,3-c]pyridine] | – | 2.65 | 0.199 | – | 0.385 | 1000 |
| COc1cncc(-c2cc3c(cn2)cnn3-c2cccc(N3CCNCC3)n2)n1 [Compound 130, 6-(6-methoxypyrazin-2-yl)-1-(6-piperazin-1-yl-2-pyridyl)pyrazolo[4,3-c]pyridine] | – | 1.87 | 0.068 | – | 0.113 | 1500 |
| Cc1cncc(-c2cc3c(cn2)cnn3-c2cccc(N3C[C@@H](N)C[C@H](F)C3)n2)n1 [Compound 192, (3S,5S)-5-fluoro-1-[6-[6-(6-methylpyrazin-2-yl)pyrazolo[4,3-c]pyridin-1-yl]-2-pyridyl]piperidin-3-amine] | – | 3.35 | 0.21 | – | 0.428 | 1700 |
| Cc1cncc(-c2cc3c(cn2)cnn3-c2cnc(C)c(N3CCC[C@H](N)C3)n2)n1 [Compound 228, (3S)-1-[3-methyl-6-[6-(6-methylpyrazin-2-yl)pyrazolo[4,3-c]pyridin-1-yl]pyrazin-2-yl]piperidin-3-amine] | – | 0.724 | 0.047 | – | 0.074 | 778 |
| Cc1cncc(-c2cc3c(cn2)cnn3-c2cccc(N3CCC[C@@H](O)C3)n2)n1 [Compound 298, (R)-1-(6-(6-(6-methylpyrazin-2-yl)-1H-pyrazolo[4,3-c]pyridin-1-yl)pyridin-2-yl)piperidin-3-ol] | – | 2.68 | 0.396 | – | 0.854 | 1600 |
| FC1CCNCC1c1cccc(-n2ncc3cnc(-c4cnn(CC(F)(F)F)c4)cc32)n1 (stereo not shown) [Compound 306, 1-(6-(4-fluoropiperidin-3-yl)pyridin-2-yl)-6-(1-(2,2,2-trifluoroethyl)-1H-pyrazol-4-yl)-1H-pyrazolo[4,3-c]pyridine] | 1700 | – | 0.125 | – | – | – |
| FC(F)(F)Cn1cc(-c2cc3c(cn2)cnn3-c2cncc(N3CCCNCC3)n2)cn1 [Compound 178, 1-(6-(1,4-Diazepan-1-yl)pyrazin-2-yl)-6-(1-(2,2,2-trifluoroethyl)-1H-pyrazol-4-yl)-1H-pyrazolo[4,3-c]pyridine] | – | 6.68 | 1.35 | – | 0.386 | 549 |
| Cc1cncc(-c2cc3c(cn2)cnn3-c2cccc(N3C[C@@H](N)C[C@@H](F)C3)n2)n1 [Compound 198, (3S,5R)-5-fluoro-1-[6-[6-(6-methylpyrazin-2-yl)pyrazolo[4,3-c]pyridin-1-yl]-2-pyridyl]piperidin-3-amine] | – | 2.55 | 0.089 | – | 0.117 | 1100 |
| c1cc(N2CCNCC2)nc(-n2ncc3cnc(-c4cncs4)cc32)c1 [Compound 109, 5-[1-(6-piperazin-1-yl-2-pyridyl)pyrazolo[4,3-c]pyridin-6-yl]thiazole] | – | 4.03 | 0.285 | – | 0.476 | 1500 |
